Patent US20070282004A1, “Use of a Cyclopentenone Prostaglandin for Delaying for the Onset and/or Preventing the Continuation of Labour” (Imperial College Innovations Limited, priority 2003, published 2007)

Columns and labels:
[1] = biological target: T1, NF-κB (Homo sapiens, UniProt P19838+Q04206); test: EMSA of NF-κB DNA binding in nuclear extracts of treated myometrial cells; type: cell-based; details: for IL-1β-induced NF-κB DNA binding (EMSA): myometrial cells, treated 2 h, then IL-1β 15 min
T1 construct: nuclear protein extracts from myometrial cells; endogenous in cells; host or cells: primary human myometrial cells (term, passage 1-4)
T1 sequence (Q04206 whole entry): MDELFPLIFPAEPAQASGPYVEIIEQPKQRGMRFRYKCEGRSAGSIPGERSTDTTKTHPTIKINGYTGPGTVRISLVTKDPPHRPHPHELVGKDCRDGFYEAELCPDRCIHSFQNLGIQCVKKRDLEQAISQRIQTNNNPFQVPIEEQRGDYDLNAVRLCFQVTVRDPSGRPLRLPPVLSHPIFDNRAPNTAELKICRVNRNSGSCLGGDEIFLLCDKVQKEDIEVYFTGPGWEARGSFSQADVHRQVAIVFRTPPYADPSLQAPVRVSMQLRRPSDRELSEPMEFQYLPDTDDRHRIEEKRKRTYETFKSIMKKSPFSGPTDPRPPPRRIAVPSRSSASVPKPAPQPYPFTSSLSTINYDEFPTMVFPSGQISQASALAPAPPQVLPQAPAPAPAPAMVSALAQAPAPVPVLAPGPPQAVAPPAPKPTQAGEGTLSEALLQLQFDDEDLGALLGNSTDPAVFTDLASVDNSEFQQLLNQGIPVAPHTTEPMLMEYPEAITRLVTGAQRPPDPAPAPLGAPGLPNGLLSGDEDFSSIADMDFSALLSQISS
T1 sequence (P19838 1-433 limits assumed): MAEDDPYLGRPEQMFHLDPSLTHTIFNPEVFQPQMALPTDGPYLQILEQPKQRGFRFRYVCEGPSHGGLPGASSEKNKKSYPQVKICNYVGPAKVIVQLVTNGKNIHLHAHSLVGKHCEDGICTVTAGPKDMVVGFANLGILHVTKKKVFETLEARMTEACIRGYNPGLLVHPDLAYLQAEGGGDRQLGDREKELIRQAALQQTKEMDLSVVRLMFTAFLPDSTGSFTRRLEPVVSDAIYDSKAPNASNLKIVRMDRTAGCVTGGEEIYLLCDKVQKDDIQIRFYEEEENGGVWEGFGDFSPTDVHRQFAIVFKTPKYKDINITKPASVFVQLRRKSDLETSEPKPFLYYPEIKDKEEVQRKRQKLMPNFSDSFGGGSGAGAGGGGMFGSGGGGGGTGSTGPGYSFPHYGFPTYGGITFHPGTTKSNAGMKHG
Protocol: Myometrial tissue was collected at term from the upper margin of uterine incision at the time of lower segment caesarean section either prior to the onset of labour (L−) or […] (L+). L+ samples were collected by Dr Mark Johnson and Dr S Soorrana at Chelsea & Westminster Hospital. Myometrial tissue was dissected, rinsed in PBS, and digested in serum-free DMEM containing 15 mg/ml collagenase 1A (Sigma), 15 mg/ml collagenase X, and 50 mg/ml bovine serum albumin for 45 min at 37° C. The cell suspension was filtered through a cell strainer, centrifuged at 400 g for 5 min, and the pellet re-suspended and plated out in DMEM, 10% FCS (Helena BioScience), 1% L-glutainine, 1% penicillin-streptomycin. Cells were used between passage numbers 1-4.
(§1) Nuclear and cytosolic protein extracts were obtained from cultured amnion cells as described by Schreiber et al (1989). For nuclear/cytosolic fractionation, confluent cell monolayers were scraped and lysed using a buffer containing 10 mM HEPES, 10 mM KCl, 0.1 mM EDTA, 0.1 mM EGTA, 2 mM DTT, 1% (v/v) NP-40 and complete protease inhibitor tablets (CPIs, Roche), diluted to manufacturer's instructions. Cell lysates were incubated on ice for 10 min and NP-40 added to a final concentration of 1% (v/v). Lysates were vortexed for 10 secs and centrifuged for 30 secs at 4° C., 12000 g. The supernatants were retained as the cytosolic protein extracts. The pellets were resuspended in buffer containing 10 mM HEPES, 10 mM KCl, 0.1 mM EDTA, 0.1 mM EGTA, 2 mM DTT, 400 mM NaCl, 1% NP-40 (v/v) and CPIs. Samples were shaken vigorously for 15 min in an ice bath. The nuclear protein extracts were obtained in the supernatant following a 5 min centrifugation at 4° C., 12000 g.
(§2) Sense and antisense strands (175 nmole/ml each) were incubated in annealing buffer (10 mM Tris-HCl pH7.5, 100 mM NaCl, 1 mM EDTA) for 10 min at 65° C., and allowed to cool at room temperature for 2 h. 3.5 pmole double-stranded oligonucleotides were end-labelled with 0.37 MBq ^32P(γATP) by incubating for 30 min at 37° C. with T4 polynucleotide kinase. Labelled oligonucleotides were recovered by centrifugation at 3000 rpm for 2 min through MicroSpin G-25 or G-50 sephadex columns (Amersham Biosciences).
(§3) 3-5 μg protein extracts were incubated on ice for 1 h with non-radiolabelled non-specific oligonucleotide (poly(dI-dC) or Oct-1) in a binding buffer (20% (v/V) glycerol, 5 mM MgCl2, 2 mM EDTA, 50 mM Tris-HCl pH7.5, 250 mM NaCl, 2 mM DTT), followed by a 45 min incubation with 0.035 pmole ^32P(γ(ATP)-end labelled oligonucleotide probes:
(§4) Oct-1 or SP-1 consensus sequences were used as a controls for a NF-κB-specific effect. The resulting protein/DNA complexes were separated in a 4% acrylamide gel, the gel dried under vacuum at 80° C. and exposed to X-ray film. For supershift analysis, samples were incubated with 2 μg antibodies for 30 min on ice prior to incubation with oligonucleotides. Non-radio-labelled oligonucleotides were used at 100-fold molar excess for specific and non-specific competition for DNA binding. Reagents for EMSA were obtained from Promega Life Sciences, Delta House, Chilworth Research Centre, Southampton SO16 7NS, United Kingdom.

[2] = biological target: T1, NF-κB; test: EMSA of NF-κB DNA binding in nuclear extracts of treated amnion cells; type: cell-based; details: L− and L+ amnion cells, treated 2 h, then IL-1β 15 min
Protocol: (§5) Placentae were obtained from patients at term either at elective Caesarean section prior to labour (L−) or following spontaneous labour onset and vaginal delivery (L+). Amnion cells were prepared as described in Bennett et al., (1989). Briefly, the amnion was separated from the placenta, washed 3× in PBS, cut into strips, and incubated in 0.5 mM EDTA in PBS for 15 min. The strips were washed in PBS 2× and digested with 2.5 mg/ml dispase in serum-free DMEM for 35 min at 37° C. The amnion was then shaken vigorously in DMEM, 10% FCS to dissociate the cells, the remaining strips discarded, and the cell suspension pelleted at 175 g for 10 min and cultured in DMEM, 10% FCS (Sigma), 1% L-glutamine, 1% penicillin-streptomycin.
as §1, §2, §3, §4

[3] = system: NF-κB; test: NF-κB-dependent luciferase reporter (κB.BG.Luc) in amnion cells; type: cell-based, human; details: L− or L+ amnion cells, treated 2 h, IL-1β 1 ng/ml 6 h
Protocol: . Values are normalised for b-gal reporter activity.
as §5
pGL3.6κB.BG.luc was the reporter construct used to assess NF-κB-mediated transcription, while the mutant pGL3.6κBmut.luc and empty pGL3.BG.luc were used as controls (Schwarzer et al., 1998).
pGL3.6κB.BG.luc: a NF-κB-dependent reporter construct with 6 copies of the NF-κB binding site. It contains two tandem repeats of the sequence 5′-GGG GAC TTT C CC TGGGGACTTTCCCTGGGGACTTTCCC-3′, which contains three copies of the decameric NF-κB binding site (underlined) upstream of a minimal β-globin promoter driving a luciferase gene.
Cells were co-transfected with the renilla vector pRL-CMV or β-galactosidase vector pCH110 as internal controls for transfection efficiencies.

[4] = biological target: T2, PPAR-γ (Homo sapiens, UniProt P37231); details: as stated from the literature; cited from earlier work
T2 sequence (P37231 1-505): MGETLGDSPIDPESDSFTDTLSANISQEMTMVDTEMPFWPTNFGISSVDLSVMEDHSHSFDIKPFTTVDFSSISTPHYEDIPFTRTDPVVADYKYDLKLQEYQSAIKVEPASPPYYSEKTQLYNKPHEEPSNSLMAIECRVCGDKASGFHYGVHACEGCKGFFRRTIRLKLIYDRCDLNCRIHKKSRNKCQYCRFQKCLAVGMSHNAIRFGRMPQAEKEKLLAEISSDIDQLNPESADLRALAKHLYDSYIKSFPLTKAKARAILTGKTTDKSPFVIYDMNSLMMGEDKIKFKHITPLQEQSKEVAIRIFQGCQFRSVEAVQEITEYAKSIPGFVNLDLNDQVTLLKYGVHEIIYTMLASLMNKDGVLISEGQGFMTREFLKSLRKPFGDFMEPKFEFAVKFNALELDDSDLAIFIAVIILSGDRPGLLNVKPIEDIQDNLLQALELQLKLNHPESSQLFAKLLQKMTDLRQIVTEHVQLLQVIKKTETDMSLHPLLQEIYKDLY

Compound | Protein binding to a consensus Oct-1 or Sp-1 probe (control) ([1]; myometrial and amnion cells) | IL-1β-induced NF-κB DNA binding (EMSA) [1] | IL-1β-induced NF-κB DNA binding (EMSA) ([1]; listed as 15dPGJ2) | IL-1β-induced NF-κB DNA binding (EMSA) [2] | IL-1β-induced NF-κB DNA binding (EMSA) ([2]; listed as 15dPGJ2) | IL-1β-induced NF-κB transcriptional activity (κB.BG.Luc reporter) [3] | PPAR agonist / ligand activity [4]
CCCCCC=CC=C1C(=O)C=C[C@@H]1CC=CCCCC(=O)O [15d-PGJ2, 15-deoxy-Δ^12,14prostaglandin J2] | unaffected | inhibited IL1-β-induced NF-κB DNA binding in a dose-dependent manner | inhibition | inhibited IL1-β-induced NF-κB DNA binding in a dose-dependent manner | inhibition | inhibited | is a PPAR agonist
CCCCC[C@H](O)/C=C/[C@H]1C=CC(=O)[C@@H]1CCCCCCC(=O)O [PGA1, prostaglandin A1] |  | inhibition |  | inhibition |  | inhibited | does not act as a PPAR ligand
